According to patent US6555663B1, “Prodrugs for selective drug delivery” (priority 1986, dated 2003):

Assays:
[1] = test system: RSFFV (Raucher Spleen Focus Forming Virus); assay: Treatment of C3H mice infected with Raucher Spleen Focus Forming Virus: spleen weight; assay type: in vivo
Experimental: The effectiveness of MTL J-1 was tested in C3H mice against the virus RSFFV (Raucher Spleen Focus Forming Virus) which is a retrovirus and is a valid animal model for HIV infection by application to the above identified mice according to the following procedure:
(§1) Three groups of two month old C3H mice, each comprising four animals were provided as one control and two test groups, wherein, the three-groups (I-III) were subjected to an infectious dose of RSFFV on day one. The first group (I) served as control and received no treatment. Group II and III were treated with […] total body weight concentration of the drug Foscarnet and the test compound MTL J-1, respectively which was administered each day for days 5 through 9. The animals were sacrificed on day 14, where upon the spleens where removed and weighed.
(§2) The tests were redone with a second control group (IA) having no infection of RSFFV and receiving no treatment with any drug, wherein groups I and IA comprise four mice each, and groups II and III comprise five mice each, providing the results summarized below: […]

[2] = Body weight of treated RSFFV-infected C3H mice (toxicity); assay type: in vivo
Experimental: as §1, §2

[3] = RSFFV-infected C3H mice, 10 μM total body weight concentration, days 5 through 9
[4] = first test (Table 1), RSFFV on day one, 10 μM total body weight concentration each day for days 5 through 9, sacrificed day 14
[5] = repeat test (Table 2) with a second, uninfected control group IA, same treatment

Substance	Effectiveness, as demonstrated by the absence of splenomegaly [1, 3]	Spleen weight Normalized [1, 4]	Spleen weight Normalized [1, 5] [grams]	Toxicity, as demonstrated by an absence of weight loss [2, 3]	Ending Weight ([2]; mouse, in vivo) [grams]	Weight change ([2]; mouse, in vivo)	Ending Weight [2, 4] [grams]	Weight change [2, 4] [grams]	Ending Weight [2, 5] [grams]	Weight change [2, 5]
5-phosphonoformate-1,5-di-(p-N-2-(N-(4-aminobutyl)-N-ethylisoluminol)-N-ethylaminophenyl)-1,5-bis-(p-N,N-dimethylaniline)-1,3-pentadiene [MTL J-1]	highly effective	.068 grams	0.049	nontoxic	19.2	+1.5 grams	–	–	–	–
phosphonoformate [Foscarnet]	–	.079 grams	0.061	–	–	–	21.2	0.15	19.6	+1.6 grams
